Measured values: patent US6492137B1, “Response element compositions and assays employing same” (The Salk Institute for Biological Studies, priority 1989, dated 2002)

Tests used:
RARα = molecular target: T1, RARα (Homo sapiens, UniProt P10276); assay: ΔSV-CAT reporter cotransfection assay in CV-1 cells with RARα expression plasmid, ±RA; type: cell-based; parameters: expressed in transfected cells; host or cells: CV-1 (monkey kidney); conditions: RA 1 μM
T1 sequence (P10276 1-462): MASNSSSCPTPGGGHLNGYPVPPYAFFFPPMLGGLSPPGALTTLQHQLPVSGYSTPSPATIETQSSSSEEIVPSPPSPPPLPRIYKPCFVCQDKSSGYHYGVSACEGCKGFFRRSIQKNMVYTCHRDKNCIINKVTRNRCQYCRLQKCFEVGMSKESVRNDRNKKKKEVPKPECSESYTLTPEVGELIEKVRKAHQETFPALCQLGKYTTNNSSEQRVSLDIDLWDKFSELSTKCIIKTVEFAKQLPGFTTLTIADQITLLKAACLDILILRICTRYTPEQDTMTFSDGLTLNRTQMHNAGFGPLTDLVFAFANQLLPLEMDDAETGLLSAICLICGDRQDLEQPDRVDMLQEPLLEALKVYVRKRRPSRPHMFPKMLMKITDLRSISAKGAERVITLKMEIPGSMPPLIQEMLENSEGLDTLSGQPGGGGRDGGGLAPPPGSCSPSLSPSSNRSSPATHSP
From the text: Receptor expression plasmids used in the following cotransfection assays have been described previously (pRShTRβ [see Thompson, et al., Proc. Natl. Acad. Sci. U.S.A. 86: 3494-3498 (1989)]; pRShRARα [see Giguere, et al., Nature 330: 624-629 (1987)]; pRShRARβ and pRshRARγ [see Ishikawa, et al., Mol. Endocrinol, 4: 837-844 (1990)]; and pRShVDR, [Schule, et al., Cell 61: 497-504 (1990)]. A basal reporter plasmid ΔSV-CAT was constructed by replacing the TK promoter in TK-CAT [Damm, et al., Nature 339: 593-597 (1989)] with the SphI-HindIII fragment of the SV40 early promoter. All of the recombinant CAT reporter plasmids used herein harbor a single copy of the indicated oligonucleotides at the unique HindIII site upstream of the SV40 promoter. Identity of the inserted oligonucleotides was confirmed by sequencing. To improve production of receptor proteins in COS cells, a new eukaryotic expression vector pCMX was prepared by modifying the plasmid CDM8 [Seed, B., Nature 329: 840-842 (1987)]. The CDM8 was cut with MluI and StuI in order to release the DNA fragment encoding the CMV/T7 promoter, SV40 small t intron/poly A signal, polyoma virus enhancer/origin, and SV40 enhancer/origin. The resulting fragment was ligated to a larger fragment of PvuII-digested PUC19. An internal deletion was introduced between unique BamHI and BclI sites present in the DCM8 portion. The stuffer sequence flanked by XbaI sites was replaced with a synthetic polylinker coding for 5′-KpnI/Asp718-EcoRV-BamHI -MscI-NheI-3′, followed by a stretch of 5′-[…]-3′ (SEQ ID NO:48) which can function as a universal termination signal for protein translation. The coding sequence of the luciferase [de Wet, et al., Mol. Cell. Biol. 7: 725-737 (1987)] and human TRβ, RARα, and VDR was placed in the polylinker region of the pCMX, generating pCMX-LUC, Pcmx-Htrβ, pCMX-hRARα, and pCMX-hVDR, respectively. The translation start site of the RARα was modified to […] by attaching the synthetic linker encoding a consensus translation start signal [Hollenberg, et al., Cell 55: 899-906 (1988)]. […]

TRβ = molecular target: T2, TRβ (Homo sapiens, UniProt P10828); assay: Gel retardation DNA-binding assay with TRβ-expressing COS cell extracts; parameters: expressed in transfected cells; host or cells: COS cells (whole-cell extract); conditions: gel retardation; TRβ COS cell extract
T2 sequence (P10828 1-461): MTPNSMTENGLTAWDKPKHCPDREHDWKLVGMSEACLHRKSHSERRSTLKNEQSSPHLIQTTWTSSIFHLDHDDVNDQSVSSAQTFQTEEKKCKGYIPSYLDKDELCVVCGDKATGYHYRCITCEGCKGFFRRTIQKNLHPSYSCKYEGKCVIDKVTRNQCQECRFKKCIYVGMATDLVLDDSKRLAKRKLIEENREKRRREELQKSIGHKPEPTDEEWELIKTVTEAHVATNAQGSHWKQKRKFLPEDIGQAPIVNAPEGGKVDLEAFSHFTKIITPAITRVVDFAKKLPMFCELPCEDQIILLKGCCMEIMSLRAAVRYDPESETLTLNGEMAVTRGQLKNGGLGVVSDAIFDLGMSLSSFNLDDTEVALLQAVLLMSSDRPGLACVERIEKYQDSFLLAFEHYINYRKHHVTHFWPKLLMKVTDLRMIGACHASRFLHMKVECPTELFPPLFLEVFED
Procedure: For DNA binding assays, COS cells were cultured in DMEM with 10% calf bovine serum and transfected by the calcium phosphate method with 20 μg of the pCMX receptor expression plasmid for 6 hours followed by a glycerol shock. After incubating the transfected COS cells for another 48 hours, the cells were harvested to prepare extracts for the DNA binding assay, carried out as described by Damm et al., Nature 339: 593-597 (1989). The extracts were made in 20 mM HEPES (pH 7.4), 0.4 M KCl, 2 mM DTT and 20% glycerol. A similar method was employed to prepare a whole cell extract from F9 stem cells. For the binding, 5 μg (COS) or 10 μg (F9) of proteins was incubated on ice for 20 minutes, first in 20 mM HEPES, 80 mM KCl, 1 mM DTT, 0.1% NP40, 2.5 μg of poly dI/dC, and 10% glycerol (cold competitor oligonucleotides, when included, were added during this pre-incubation period). Then 40 fmole of ^32P-labeled oligonucleotide probe (1-2×10^5 cpm, prepared by filling-in reaction using Klenow polymerase in the presence of α-^32P-dCTP) was added to the reaction mixture, followed by incubation at room temperature for 30 minutes. The receptor-DNA complexes were resolved by electrophoresis through 5% polyacrylamide gel containing 5% glycerol at 6 V/cm at room temperature.
Oligonucleotides listed in FIG. 3 were used as a probe to test specific DNA-binding of the RARα and TRβ in a gel retardation assay.
Using the mobility shift assay, the DNA-binding capacity of extracts from COS cells expressing TRβ and RARα to these sequences was also tested.

RAR = assay: Delta-MTV constructs, RA induction in CV-1 cells with cotransfected RAR expression vector; type: cell-based; conditions: Delta-MTV promoter; with vs without RAR expression vectors
Procedure: Inspection of the sequences of βRE1, βRE2, and βRE3 (see FIG. 2b) identifies a tandem repeat of the 6 bp motif. The center to center separation of 11 bp between these repeats is one turn of the DNA helix. […] Apparently, a single half site element of the RARβ gene would reciprocally be responsive to the TR, ER, and/or other members of the receptor superfamily.
Cells were transfected in 10 cm dishes with 10 μg of DNA containing 5 μg of reporter plasmid, 1-2 μg of either RSV-LUC (a), or RSV-βGAL or pCH110 (c and d), pGEM4 as carrier DNA, and for the experiments shown in a and d, 1 μg of RSV-RAR expression vector or the same amount of an RSV vector generating a nonsense transcript. Cells were harvested 1 day after addition of retinoic acid. All CAT assays represent equivalent amounts of β-galactosidase activity; β-GAL assays were normalized to luciferase activity.

[1] = molecular target: T3, Thyroid hormone receptor beta (TRβ), in CV-1 cells (Homo sapiens, UniProt P10828 P10828:1-461); assay: cell_activity; T3 100 nM, CV-1; conditions: tags: pRShTRβ; label: 32P; 5'-agct overhangs
T3 sequence: T2 sequence (P10828 1-461)
Procedure: (§1) For cotransfection assays, a monkey kidney cell line CV-1 was kept in Dulbecco's modified Eagle's medium (DMEM) supplemented with 10% charcoal-resin double split calf bovine serum. Transfections were performed via calcium-phosphate precipitation method as described by Umesono, et al. in Cell 57: 1139–1146 (1989), with 0.5 μg of a pRS receptor expression plasmid, 1.0 μg of a reporter CAT plasmid, 5 μg of pRAS-βGAL [Umesono, et al., Cell 57: 1139–1146 (1989)] as an internal control, and 8.5 μg of carrier plasmid pUC19. The cells were transfected for 8 hours; after washing the DNA precipitates, the cells were then incubated for an additional 36 hours with or without the ligand (T_3, 100 nM; RA, 1 μM; 1,25-(OH)_2 vitamin D_3, 100 nM). Cell extracts were prepared for βGAL and CAT assays, as described by Umesono, et al., supra. Transfection of F9 teratocarcinoma cells was carried out employing a similar method except the cells were incubated for 12 hours in the presence of the DNA precipitates, and the RA was added at 1 μM for another 24 hours before harvesting the cells. 2, 5, and 4 μg of the reporter, pRAS-βGAL, and pUC19 were used, respectively.
(§2) The above strategies were used to test both in vivo transactivation and in vitro DNA-binding of these artificial HREs for TRβ, RARα, and VDR. […]

[2] = molecular target: T4, Vitamin D receptor (VDR), in CV-1 cells (Homo sapiens, UniProt P11473 P11473:1-427); assay: cell_activity; vitamin D3 100 nM, CV-1; conditions: tags: pRShVDR; label: 32P; 5'-agct overhangs
T4 sequence: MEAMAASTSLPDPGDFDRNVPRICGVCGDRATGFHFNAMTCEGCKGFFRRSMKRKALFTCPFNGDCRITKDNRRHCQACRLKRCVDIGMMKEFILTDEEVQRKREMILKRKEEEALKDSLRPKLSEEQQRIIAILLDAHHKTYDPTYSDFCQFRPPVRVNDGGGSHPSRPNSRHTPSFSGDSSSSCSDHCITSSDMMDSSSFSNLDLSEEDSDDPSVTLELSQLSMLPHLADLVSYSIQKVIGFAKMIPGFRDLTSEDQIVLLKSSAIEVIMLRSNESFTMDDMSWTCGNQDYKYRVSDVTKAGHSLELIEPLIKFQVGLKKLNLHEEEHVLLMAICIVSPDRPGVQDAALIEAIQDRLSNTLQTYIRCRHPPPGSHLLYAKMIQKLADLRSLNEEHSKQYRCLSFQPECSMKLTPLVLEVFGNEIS
Procedure: as §1, §2

In the case of “DR-4: perfect tandem repeat of AGGTCA hexamers separated by 4 nucleotides (SEQ ID NO:27) (AGCTTCAGGTCACAGGAGGTCAGAGAGCT; DNA, backbone not given here; double-stranded DNA response element with agct overhangs, cloned into reporter)”, the “RA response (in words)” value (RARα) is reported as “clear activity” and the “TRβ binding to labeled oligonucleotide probe” value (TRβ) is reported as “specific protein-DNA complex”.

For “βRE4: construct containing a single copy of either the 5′- or 3′- half site (SEQ ID NO:8) (AAGCTTCGAAAGTTCACTCGCATAGCTT; listed as DNA, chemistry not given here)”, the “function of single half-site constructs” value (RAR) was “functional only upon cotransfection of RAR expression vectors”.

With “βRE5: construct containing a single copy of either the 5′- or 3′- half site (SEQ ID NO:9) (AAGCTTAAGGGTTCACCGAGCTT; listed as DNA, chemistry not given here)” the “function of single half-site constructs” value (RAR) was “functional only upon cotransfection of RAR expression vectors”.

B1: DR-4 (dsDNA)
DNA 1: AGCTTCAGGTCACAGGAGGTCAGAGAGCT
DNA 2: AGCTCTCTGACCTCCTGTGACCTGAAGCT
For B1, the activity [1] was 22 fold induction.

B2: DR-3 (dsDNA)
DNA 1: AGCTTCAGGTCAAGGAGGTCAGAGAGCT
DNA 2: AGCTCTCTGACCTCCTTGACCTGAAGCT
B2 gave an activity [2] of 8.3 fold induction.
